Experimental data: ChEMBL document CHEMBL3046890, “Synthesis and Herbicidal Activity of Sulfonylureas; SL-950 and Its Related Compounds” (1995)

Assays:
Type in all cases: functional
[1] = system: Persicaria lapathifolia; assay: Post-emergence herbicidal activity against three-leaf stage Persicaria lapathifolia assessed as efficacy of weed growth control at 40 g ai/ha under greenhouse conditions
[2] = system: Chenopodium album; assay: Post emergence herbicidal activity against two-leaf stage Chenopodium album assessed as efficacy of weed growth control at 40 g ai/ha under greenhouse conditions
[3] = system: Persicaria longiseta; assay: Post-emergence herbicidal activity against Persicaria longiseta assessed as inhibition of weed growth at 125 g ai/ha measured 22 to 37 days after compound application under greenhouse conditions; details: read-out: GI
[4] = system: Cyperus rotundus; assay: Post-emergence herbicidal activity against four to five-leaf stage Cyperus rotundus assessed as efficacy of weed growth control at 40 g ai/ha under greenhouse conditions
[5] = system: Commelina communis; assay: Post emergence herbicidal activity against two-leaf stage Commelina communis (Asiatic dayflower) assessed as efficacy of weed growth control at 40 g ai/ha under greenhouse conditions
[6] = system: Portulaca oleracea; assay: Post-emergence herbicidal activity against three-leaf stage Portulaca oleracea assessed as efficacy of weed growth control at 40 g ai/ha under greenhouse conditions
[7] = system: Cyperus rotundus; assay: Post-emergence herbicidal activity against four to five-leaf stage Cyperus rotundus assessed as efficacy of weed growth control at 750 g ai/ha under greenhouse conditions
[8] = system: Sorghum halepense; assay: Post emergence herbicidal activity against four to five-leaf stage Sorghum halepense (Johnson grass) assessed as efficacy of weed growth control at 750 g ai/ha under greenhouse conditions
[9] = system: Capsella bursa-pastoris; assay: Post-emergence herbicidal activity against four-leafstage Capsella bursa-pastoris assessed as efficacy of weed growth control at 750 g ai/ha under greenhouse conditions
[10] = system: Commelina communis; assay: Post emergence herbicidal activity against two-leaf stage Commelina communis (Asiatic dayflower) assessed as efficacy of weed growth control at 750 g ai/ha under greenhouse conditions
[11] = system: Portulaca oleracea; assay: Post-emergence herbicidal activity against three-leaf stage Portulaca oleracea assessed as efficacy of weed growth control at 750 g ai/ha under greenhouse conditions
[12] = system: Solanum nigrum; assay: Post emergence herbicidal activity against four-leaf stage Solanum nigrum (black nightshade) assessed as efficacy of weed growth control at 750 g ai/ha under greenhouse conditions
[13] = system: Amaranthus viridis; assay: Post-emergence herbicidal activity against three-leaf stage Amaranthus viridis assessed as efficacy of weed growth control at 750 g ai/ha under greenhouse conditions
[14] = system: Digitaria sanguinalis; assay: Post-emergence herbicidal activity against two-leaf stage Digitaria sanguinalis (hairy crabgrass) assessed as efficacy of weed growth control at 80 g ai/ha under greenhouse conditions
[15] = system: Cynodon dactylon; assay: Post-emergence herbicidal activity against 15 cm leaf stage Cynodon dactylon assessed as efficacy of weed growth control at 60 g ai/ha under greenhouse conditions
[16] = system: Sorghum halepense; assay: Post emergence herbicidal activity against four to five-leaf stage Sorghum halepense (Johnson grass) assessed as efficacy of weed growth control at 60 g ai/ha under greenhouse conditions
[17] = system: Portulaca oleracea; assay: Post-emergence herbicidal activity against three-leaf stage Portulaca oleracea assessed as efficacy of weed growth control at 60 g ai/ha under greenhouse conditions
[18] = system: Abutilon theophrasti; assay: Post-emergence herbicidal activity against one-leaf stage Abutilon theophrasti (velvetleaf) assessed as efficacy of weed growth control at 60 g ai/ha under greenhouse conditions
[19] = system: Sida spinosa; assay: Post-emergence herbicidal activity against two-leaf stage Sida spinosa assessed as efficacy of weed growth control at 60 g ai/ha under greenhouse conditions
[20] = system: Persicaria lapathifolia; assay: Post-emergence herbicidal activity against three-leaf stage Persicaria lapathifolia assessed as efficacy of weed growth control at 60 g ai/ha under greenhouse conditions
[21] = system: Galinsoga quadriradiata; assay: Post-emergence herbicidal activity against four-leafstage of Galinsoga quadriradiata assessed as efficacy of weed growth control at 60 g ai/ha under greenhouse conditions
[22] = system: Cyperus microiria; assay: Post-emergence herbicidal activity against three-leaf stage Cyperus microiria assessed as efficacy of weed growth control at 60 g ai/ha under greenhouse conditions
[23] = system: Avena fatua; assay: Post emergence herbicidal activity against three-leaf stage Avena fatua assessed as efficacy of weed growth control at 60 g ai/ha under greenhouse conditions
[24] = system: Avena fatua; assay: Post-emergence herbicidal activity against three-leaf stage Avena fatua assessed as efficacy of weed growth control at 80 g ai/ha under greenhouse conditions
[25] = system: Echinochloa crus-galli; assay: Post-emergence herbicidal activity against three-leaf stage Echinochloa crus-galli (barnyard grass) assessed as efficacy of weed growth control at 80 g ai/ha under greenhouse conditions
[26] = system: Eleusine indica; assay: Post-emergence herbicidal activity against three-leaf stage Eleusine indica assessed as efficacy of weed growth control at 80 g ai/ha under greenhouse conditions
[27] = system: Setaria viridis; assay: Post-emergence herbicidal activity against two-leaf stage Setaria viridis (green foxtail) assessed as efficacy of weed growth control at 80 g ai/ha under greenhouse conditions
[28] = system: Abutilon theophrasti; assay: Post-emergence herbicidal activity against one-leaf stage Abutilon theophrasti (velvetleaf) assessed as efficacy of weed growth control at 40 g ai/ha under greenhouse conditions
[29] = system: Sida spinosa; assay: Post-emergence herbicidal activity against two-leaf stage Sida spinosa assessed as efficacy of weed growth control at 40 g ai/ha under greenhouse conditions
[30] = system: Avena fatua; assay: Post emergence herbicidal activity against three-leaf stage Avena fatua assessed as efficacy of weed growth control at 750 g ai/ha under greenhouse conditions
[31] = system: Cynodon dactylon; assay: Post-emergence herbicidal activity against 15 cm leaf stage Cynodon dactylon assessed as efficacy of weed growth control at 80 g ai/ha under greenhouse conditions
[32] = system: Persicaria lapathifolia; assay: Post-emergence herbicidal activity against three-leaf stage Persicaria lapathifolia assessed as efficacy of weed growth control at 750 g ai/ha under greenhouse conditions
[33] = system: Sorghum halepense; assay: Post emergence herbicidal activity against four to five-leaf stage Sorghum halepense (Johnson grass) assessed as efficacy of weed growth control at 80 g ai/ha under greenhouse conditions
[34] = system: Commelina communis; assay: Post emergence herbicidal activity against two-leaf stage Commelina communis (Asiatic dayflower) assessed as efficacy of weed growth control at 80 g ai/ha under greenhouse conditions
[35] = system: Senna tora; assay: Post-emergence herbicidal activity against one-leaf stage Senna tora assessed as efficacy of weed growth control at 80 g ai/ha under greenhouse conditions
[36] = system: Abutilon theophrasti; assay: Post-emergence herbicidal activity against one-leaf stage Abutilon theophrasti (velvetleaf) assessed as efficacy of weed growth control at 80 g ai/ha under greenhouse conditions
[37] = system: Sida spinosa; assay: Post-emergence herbicidal activity against two-leaf stage Sida spinosa assessed as efficacy of weed growth control at 80 g ai/ha under greenhouse conditions
[38] = system: Chenopodium album; assay: Post-emergence herbicidal activity against two-leaf stage Chenopodium album assessed as efficacy of weed growth control at 80 g ai/ha under greenhouse conditions
[39] = system: Stellaria media; assay: Post-emergence herbicidal activity against eight-leaf stage Stellaria media assessed as efficacy of weed growth control at 80 g ai/ha under greenhouse conditions
[40] = system: Galinsoga quadriradiata; assay: Post-emergence herbicidal activity against four-leafstage of Galinsoga quadriradiata assessed as efficacy of weed growth control at 80 g ai/ha under greenhouse conditions
[41] = system: Cyperus microiria; assay: Post-emergence herbicidal activity against three-leaf stage Cyperus microiria assessed as efficacy of weed growth control at 80 g ai/ha under greenhouse conditions

**Q.** How did the Efficacy [1] turn out when `COc1cc(OC)nc(NC(=O)NS(=O)(=O)c2ncccc2C(=O)N(C)C)n1` [NICOSULFURON] was run?
**A.** 70%

**Q.** And the Efficacy [2]?
**A.** 50%

**Q.** And the inhibition of growth at 125 g/ha [3]?
**A.** 100%

**Q.** And the Efficacy [4]?
**A.** <50%

**Q.** What about the Efficacy [5] of the same compound?
**A.** 70%

**Q.** And the Efficacy [6]?
**A.** 70%

**Q.** What about the Efficacy [7] of the same compound?
**A.** 50%

**Q.** And the Efficacy [8]?
**A.** <50%

**Q.** What about the Efficacy [9] of the same compound?
**A.** 95%

**Q.** And the Efficacy [10]?
**A.** 95%

**Q.** What about the Efficacy [11] of the same compound?
**A.** 95%

**Q.** What about the Efficacy [12] of the same compound?
**A.** 95%

**Q.** And the Efficacy [13]?
**A.** 50%

**Q.** What about the Efficacy [14] of the same compound?
**A.** 95%

**Q.** And the Efficacy [15]?
**A.** <50%

**Q.** And the Efficacy [16]?
**A.** 95%

**Q.** What about the Efficacy [17] of the same compound?
**A.** 95%

**Q.** What about the Efficacy [18] of the same compound?
**A.** 50%

**Q.** And the Efficacy [19]?
**A.** 50%

**Q.** And the Efficacy [20]?
**A.** 95%

**Q.** And the Efficacy [21]?
**A.** 95%

**Q.** And the Efficacy [22]?
**A.** 95%

**Q.** And the Efficacy [23]?
**A.** 95%

**Q.** And the Efficacy [24]?
**A.** 95%

**Q.** And the Efficacy [25]?
**A.** 95%

**Q.** What about the Efficacy [26] of the same compound?
**A.** 95%

**Q.** What about the Efficacy [27] of the same compound?
**A.** 95%

**Q.** And the Efficacy [28]?
**A.** 50%

**Q.** And the Efficacy [29]?
**A.** 50%

**Q.** What about the Efficacy [30] of the same compound?
**A.** <50%

**Q.** And the Efficacy [31]?
**A.** <50%

**Q.** What about the Efficacy [32] of the same compound?
**A.** 95%

**Q.** What about the Efficacy [33] of the same compound?
**A.** 95%

**Q.** What about the Efficacy [34] of the same compound?
**A.** 95%

**Q.** And the Efficacy [35]?
**A.** 70%

**Q.** And the Efficacy [36]?
**A.** 70%

**Q.** What about the Efficacy [37] of the same compound?
**A.** 70%

**Q.** What about the Efficacy [38] of the same compound?
**A.** 95%

**Q.** What about the Efficacy [39] of the same compound?
**A.** 95%

**Q.** What about the Efficacy [40] of the same compound?
**A.** 95%

**Q.** What about the Efficacy [41] of the same compound?
**A.** 95%
